Test system: IRE-1α-mediated XBP-1 splicing in human myeloma MM.1s cells
Assay: Cellular XBP-1 splicing assay in myeloma cells (RT-PCR)
Format: cell-based
Details: Homo sapiens, MM1.S; average EC50, endogenous XBP-1 splicing in myeloma cells, DTT stress
Method: After an additional 45 minutes (2 hours total) with compound and DTT, the cells are harvested with TRIZOL® (a mono-phasic solution of phenol and guanidine isothiocyanate), and total RNA is prepared as directed by the manufacturer (Invitrogen). Human XBP-1 is amplified by RT-PCR with the following primers, which flank the 26 base unconventional intron excised by IRE-1α:
RT-PCR of unstressed (U) cells then generates the upper band. When cells are stressed (S) with the endoplasmic reticulum (ER) stressing agent DTT, IRE-1α is activated due to accumulating unfolded protein and the resulting RT-PCR product is 26 base pairs shorter.
Compounds which pass specificity assays are assayed for cellular EC50 using endogenous XBP-1 splicing in myeloma cells. XBP-1 is regulated through the excision of a 26 nucleotide intron from the XBP-1 mRNA by the highly specific endoribonuclease activity of IRE-1α. […] This splicing event is used to measure IRE-1α activity on XBP-1 mRNA in cells and tissues.
Briefly, compounds are incubated in the presence or absence of an ER stress agent (e.g., DTT), and the ratio of XBP-1u (unspliced) to XBP-1s (spliced) is quantified by RT-PCR.

SMILES	EC50
O=Cc1c(O)ccc2ccc(N3CCCC3)cc12 [Compound 104]	> 10 µM
CN(C)CCCNC(=O)c1ccc(-c2ccc3c(C=O)c(O)ccc3c2)s1 [Compound 74]	> 10 µM
O=Cc1c(O)ccc2ccc(N3CCC(C(=O)N4CCOCC4)C3)cc12 (centres unmarked) [Compound 149]	> 10 µM
CS(=O)(=O)NC1CCCN(c2ccc3c(C=O)c(O)ccc3c2)C1 (centres unmarked) [Compound 94]	> 10 µM
O=Cc1c(O)ccc2cc(N3CCN(c4cccnc4)CC3)ccc12 [Compound 103]	> 10 µM
O=Cc1c(O)ccc2ccc(N3CCC(N4CCCCC4)C3)cc12 (centres unmarked) [Compound 137]	> 10 µM
O=Cc1c(O)ccc2cc(CCC(=O)O)ccc12 [Compound 39]	> 10 µM
O=Cc1c(O)ccc2cc(N3CCC(NCc4ccccc4)C3)ccc12 (centres unmarked) [Compound 153]	> 10 µM
CSc1ncc(-c2ccc3c(C=O)c(O)ccc3c2)cn1 [Compound 64]	> 10 µM
CC(=O)NC1CCN(c2ccc3ccc(O)c(C=O)c3c2)C1 (centres unmarked) [Compound 156]	> 10 µM
O=Cc1c(O)ccc2cc(N3CCCC3)ccc12 [Compound 59]	> 10 µM
O=Cc1c(O)ccc2cc(N3CCN(c4ccccn4)CC3)ccc12 [Compound 81]	> 10 µM
CN(C)C1CCN(c2ccc3c(C=O)c(O)ccc3c2)C1 (centres unmarked) [Compound 106]	> 10 µM
O=Cc1c(O)ccc2cc(N3CCOCC3)ccc12 [Compound 54]	> 10 µM
CN(C)C(=O)c1ccc(-c2ccc3c(C=O)c(O)ccc3c2)s1 [Compound 12]	10 µM
CN(Cc1ccncc1)C(=O)C1CCN(c2ccc3ccc(O)c(C=O)c3c2)C1 (centres unmarked) [Compound 148]	> 10 µM
CN(Cc1ccncc1)C(=O)C1CCN(c2ccc3c(C=O)c(O)ccc3c2)C1 (centres unmarked) [Compound 158]	> 10 µM
CN(Cc1ccncc1)C1CCN(c2ccc3ccc(O)c(C=O)c3c2)C1 (centres unmarked) [Compound 155]	> 10 µM
CN1CCN(c2nc(-c3ccc4c(C=O)c(O)ccc4c3)cs2)CC1 [Compound 120]	10 µM
O=Cc1c(O)ccc2cc(N3CCC(NCc4ccccn4)CC3)ccc12 [Compound 114]	> 10 µM
CN(C)C1CCN(c2ccc3ccc(O)c(C=O)c3c2)C1 (centres unmarked) [Compound 135]	> 10 µM
O=Cc1c(O)ccc2cc(-c3ccc(C(=O)N4CCOCC4)cc3Cl)ccc12 [Compound 29]	> 10 µM
CN(C)C(=O)/C=C/c1ccc2c(C=O)c(O)ccc2c1 [Compound 31]	> 10 µM
CN1CCN(C(=O)c2ccc(Cl)c(-c3ccc4c(C=O)c(O)ccc4c3)c2)CC1 [Compound 27]	> 10 µM
O=Cc1c(O)ccc2cc(N3CCCC(NCc4ccccn4)C3)ccc12 (centres unmarked) [Compound 108]	> 10 µM
COc1ccc(CNC(=O)c2cccc(-c3ccc4c(C=O)c(O)ccc4c3)n2)cc1 [Compound 17]	> 10 µM
O=Cc1c(O)ccc2ccc(N3CCC(C(=O)N4CCCCC4)C3)cc12 (centres unmarked) [Compound 133]	> 10 µM
CN1CCN(C(=O)C2CCN(c3ccc4c(C=O)c(O)ccc4c3)CC2)CC1 [Compound 91]	> 10 µM

Results, then the compound that gave them:

EC50	SMILES
< 10 µM	CN1CCN(C(=O)c2csc(-c3ccc4c(C=O)c(O)ccc4c3)n2)CC1 [Compound 60]
< 10 µM	CC(=O)NC1CCN(c2ccc3c(C=O)c(O)ccc3c2)C1 (centres unmarked) [Compound 154]
< 10 µM	CN1CCN(C(=O)/C=C/c2ccc3c(C=O)c(O)ccc3c2)CC1 [Compound 63]
< 10 µM	CC(C)N1CCN(c2ccc3c(C=O)c(O)ccc3c2)CC1 [Compound 99]
< 10 µM	Cc1nc(-c2ccc3c(C=O)c(O)ccc3c2)sc1C(=O)N1CCOCC1 [Compound 109]
< 10 µM	O=Cc1c(O)ccc2cc(/C=C/C(=O)N3CCOCC3)ccc12 [Compound 32]
< 10 µM	COCCNC(=O)c1cccc(-c2ccc3c(C=O)c(O)ccc3c2)c1 [Compound 4]
< 10 µM	CN1CCN(C(=O)c2ccc(-c3ccc4c(C=O)c(O)ccc4c3)cn2)CC1 [Compound 50]
< 10 µM	CN1CCCC(CNC(=O)c2ccc(-c3ccc4c(C=O)c(O)ccc4c3)s2)C1 (centres unmarked) [Compound 69]
< 10 µM	CN1CCN(C(=O)c2coc(-c3ccc4c(C=O)c(O)ccc4c3)n2)CC1 [Compound 76]
< 10 µM	O=Cc1c(O)ccc2cc(N3CCC(N4CCCCC4)C3)ccc12 (centres unmarked) [Compound 117]
10 µM	CCCNC(=O)c1cccc(-c2ccc3c(C=O)c(O)ccc3c2)n1 [Compound 16]
< 10 µM	CN1CCC(NC(=O)c2ccc(-c3ccc4c(C=O)c(O)ccc4c3)s2)C1 (centres unmarked) [Compound 79]
< 10 µM	Cc1nc(-c2ccc3c(C=O)c(O)ccc3c2)sc1C(=O)NC1CCN(C)CC1 [Compound 145]
< 10 µM	Cc1nc(-c2ccc3c(C=O)c(O)ccc3c2)sc1C(=O)NC1CCNCC1 [Compound 144]
< 10 µM	O=Cc1c(O)ccc2cc(-c3ccc(C(=O)NCCN4CCOCC4)nc3)ccc12 [Compound 126]
< 10 µM	O=Cc1c(O)ccc2cc(-c3ccc(C(=O)NC4CCNCC4)nc3)ccc12 [Compound 151]
< 10 µM	CN1CCN(C(=O)c2cnc(-c3ccc4c(C=O)c(O)ccc4c3)s2)CC1 [Compound 61]
< 10 µM	O=Cc1c(O)ccc2cc(-c3ccc(C(=O)NC4CCCNC4)o3)ccc12 (centres unmarked) [Compound 171]
< 10 µM	CN1CCC(NC(=O)c2ccc(-c3ccc4c(C=O)c(O)ccc4c3)s2)CC1 [Compound 38]
< 10 µM	CN1CCN(C(=O)c2cncc(-c3ccc4c(C=O)c(O)ccc4c3)c2)CC1 [Compound 67]
< 10 µM	O=Cc1c(O)ccc2cc(-c3ccc(C(=O)N4CCCC4)cc3)ccc12 [Compound 3]
< 10 µM	CN(C)C(=O)CCc1ccc2c(C=O)c(O)ccc2c1 [Compound 51]
< 10 µM	O=Cc1c(O)ccc2cc(-c3ccc(C(=O)N4CCCC4)nc3)ccc12 [Compound 124]

Target: human IRE-1α (GST-IRE-1α) (Homo sapiens (Human), UniProt O75460)
Sequence (O75460 19-977): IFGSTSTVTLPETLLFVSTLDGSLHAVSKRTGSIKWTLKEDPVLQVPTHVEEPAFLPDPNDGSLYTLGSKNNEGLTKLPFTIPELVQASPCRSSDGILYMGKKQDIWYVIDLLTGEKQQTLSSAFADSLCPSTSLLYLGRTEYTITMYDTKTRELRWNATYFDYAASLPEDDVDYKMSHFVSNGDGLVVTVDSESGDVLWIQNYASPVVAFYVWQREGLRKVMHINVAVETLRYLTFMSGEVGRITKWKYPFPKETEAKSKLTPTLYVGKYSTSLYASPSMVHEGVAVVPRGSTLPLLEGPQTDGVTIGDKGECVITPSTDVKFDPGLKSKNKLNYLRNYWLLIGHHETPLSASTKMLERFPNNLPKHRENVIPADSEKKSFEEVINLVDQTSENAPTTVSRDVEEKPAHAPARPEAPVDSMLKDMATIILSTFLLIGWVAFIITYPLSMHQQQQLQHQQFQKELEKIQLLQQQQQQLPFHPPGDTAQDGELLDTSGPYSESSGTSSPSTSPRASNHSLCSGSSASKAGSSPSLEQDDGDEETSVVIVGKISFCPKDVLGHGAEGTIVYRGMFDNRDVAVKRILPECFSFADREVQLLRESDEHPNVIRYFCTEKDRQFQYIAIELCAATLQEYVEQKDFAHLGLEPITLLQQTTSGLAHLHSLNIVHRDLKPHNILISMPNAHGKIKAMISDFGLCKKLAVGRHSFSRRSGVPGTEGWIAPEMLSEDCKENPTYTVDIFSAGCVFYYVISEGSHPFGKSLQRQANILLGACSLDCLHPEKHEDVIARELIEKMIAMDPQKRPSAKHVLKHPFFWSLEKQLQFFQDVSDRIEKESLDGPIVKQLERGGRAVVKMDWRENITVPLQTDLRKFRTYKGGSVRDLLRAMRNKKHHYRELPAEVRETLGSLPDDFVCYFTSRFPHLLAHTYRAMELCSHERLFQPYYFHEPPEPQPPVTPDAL
Assay: IRE-1α assay (cleavage of mini-XBP-1 mRNA stem-loop substrate)
Format: biochemical
Details: average IC50 for inhibition of IRE-1α in vitro
Method: A fusion protein comprising glutathione S transferase (GST) and human IRE-1α (GST-IRE-1α) obtained from a 500 ml baculovirus-infected insect cell culture can be used to measure IRE-1α activity in vitro. Five μl of a reaction mixture comprising 1× reaction buffer (5× reaction buffer is 100 mM Hepes pH 7.5, 250 mM KOAc, 2.5 mM MgCl2), 3 mM DTT, and 0.4% polyethylene glycol water is added to each well of 384 well plates. Twenty-five nanoliters of a 1 mM test compound solution are added to test wells. […] Negative control wells contain only reaction mixture and test compound. After spinning the plates at 1200 rpm for 30 seconds, 3 μl of an IRE-1α human mini-XBP-1 mRNA stem-loop substrate [NT] ID NO:1), labeled with the fluorescent dye Cy5 at the [NT] end, are added to each well of a control plate. The plates are again spun at 1200 rpm for 30 seconds. […] The plates are covered with lids and incubated for one hour at 30° C. The plates are then transferred to an […] microplate reader. Data is analyzed using data analysis software, and the percent activity of IRE-1α is calculated.

SMILES	IC50
O=Cc1c(O)ccc2ccc(N3CCCC3)cc12 [Compound 104]	> 1 µM
CN(C)CCCNC(=O)c1ccc(-c2ccc3c(C=O)c(O)ccc3c2)s1 [Compound 74]	< 1 µM
O=Cc1c(O)ccc2ccc(N3CCC(C(=O)N4CCOCC4)C3)cc12 (centres unmarked) [Compound 149]	> 1 µM
CS(=O)(=O)NC1CCCN(c2ccc3c(C=O)c(O)ccc3c2)C1 (centres unmarked) [Compound 94]	> 1 µM
O=Cc1c(O)ccc2cc(N3CCN(c4cccnc4)CC3)ccc12 [Compound 103]	> 1 µM
O=Cc1c(O)ccc2ccc(N3CCC(N4CCCCC4)C3)cc12 (centres unmarked) [Compound 137]	> 1 µM
O=Cc1c(O)ccc2cc(CCC(=O)O)ccc12 [Compound 39]	< 1 µM
O=Cc1c(O)ccc2cc(N3CCC(NCc4ccccc4)C3)ccc12 (centres unmarked) [Compound 153]	> 1 µM
CSc1ncc(-c2ccc3c(C=O)c(O)ccc3c2)cn1 [Compound 64]	> 1 µM
CC(=O)NC1CCN(c2ccc3ccc(O)c(C=O)c3c2)C1 (centres unmarked) [Compound 156]	> 1 µM
O=Cc1c(O)ccc2cc(N3CCCC3)ccc12 [Compound 59]	> 1 µM
O=Cc1c(O)ccc2cc(N3CCN(c4ccccn4)CC3)ccc12 [Compound 81]	> 1 µM
CN(C)C1CCN(c2ccc3c(C=O)c(O)ccc3c2)C1 (centres unmarked) [Compound 106]	> 1 µM
O=Cc1c(O)ccc2cc(N3CCOCC3)ccc12 [Compound 54]	> 1 µM
CN(C)C(=O)c1ccc(-c2ccc3c(C=O)c(O)ccc3c2)s1 [Compound 12]	< 1 µM
CN(Cc1ccncc1)C(=O)C1CCN(c2ccc3ccc(O)c(C=O)c3c2)C1 (centres unmarked) [Compound 148]	> 1 µM
CN(Cc1ccncc1)C(=O)C1CCN(c2ccc3c(C=O)c(O)ccc3c2)C1 (centres unmarked) [Compound 158]	< 1 µM
CN(Cc1ccncc1)C1CCN(c2ccc3ccc(O)c(C=O)c3c2)C1 (centres unmarked) [Compound 155]	> 1 µM
CN1CCN(c2nc(-c3ccc4c(C=O)c(O)ccc4c3)cs2)CC1 [Compound 120]	< 1 µM
O=Cc1c(O)ccc2cc(N3CCC(NCc4ccccn4)CC3)ccc12 [Compound 114]	< 1 µM
CN(C)C1CCN(c2ccc3ccc(O)c(C=O)c3c2)C1 (centres unmarked) [Compound 135]	> 1 µM
O=Cc1c(O)ccc2cc(-c3ccc(C(=O)N4CCOCC4)cc3Cl)ccc12 [Compound 29]	< 1 µM
CN(C)C(=O)/C=C/c1ccc2c(C=O)c(O)ccc2c1 [Compound 31]	< 0.1 µM
CN1CCN(C(=O)c2ccc(Cl)c(-c3ccc4c(C=O)c(O)ccc4c3)c2)CC1 [Compound 27]	< 1 µM
O=Cc1c(O)ccc2cc(N3CCCC(NCc4ccccn4)C3)ccc12 (centres unmarked) [Compound 108]	> 1 µM
COc1ccc(CNC(=O)c2cccc(-c3ccc4c(C=O)c(O)ccc4c3)n2)cc1 [Compound 17]	< 1 µM
O=Cc1c(O)ccc2ccc(N3CCC(C(=O)N4CCCCC4)C3)cc12 (centres unmarked) [Compound 133]	> 1 µM
CN1CCN(C(=O)C2CCN(c3ccc4c(C=O)c(O)ccc4c3)CC2)CC1 [Compound 91]	> 1 µM

Now from value to compound:

IC50	SMILES
< 0.1 µM	CN1CCN(C(=O)c2csc(-c3ccc4c(C=O)c(O)ccc4c3)n2)CC1 [Compound 60]
< 1 µM	CC(=O)NC1CCN(c2ccc3c(C=O)c(O)ccc3c2)C1 (centres unmarked) [Compound 154]
< 1 µM	CN1CCN(C(=O)/C=C/c2ccc3c(C=O)c(O)ccc3c2)CC1 [Compound 63]
> 1 µM	CC(C)N1CCN(c2ccc3c(C=O)c(O)ccc3c2)CC1 [Compound 99]
< 0.1 µM	Cc1nc(-c2ccc3c(C=O)c(O)ccc3c2)sc1C(=O)N1CCOCC1 [Compound 109]
< 0.1 µM	O=Cc1c(O)ccc2cc(/C=C/C(=O)N3CCOCC3)ccc12 [Compound 32]
< 0.1 µM	COCCNC(=O)c1cccc(-c2ccc3c(C=O)c(O)ccc3c2)c1 [Compound 4]
< 1 µM	CN1CCN(C(=O)c2ccc(-c3ccc4c(C=O)c(O)ccc4c3)cn2)CC1 [Compound 50]
< 0.1 µM	CN1CCCC(CNC(=O)c2ccc(-c3ccc4c(C=O)c(O)ccc4c3)s2)C1 (centres unmarked) [Compound 69]
< 1 µM	CN1CCN(C(=O)c2coc(-c3ccc4c(C=O)c(O)ccc4c3)n2)CC1 [Compound 76]
< 1 µM	O=Cc1c(O)ccc2cc(N3CCC(N4CCCCC4)C3)ccc12 (centres unmarked) [Compound 117]
< 0.1 µM	CCCNC(=O)c1cccc(-c2ccc3c(C=O)c(O)ccc3c2)n1 [Compound 16]
< 0.1 µM	CN1CCC(NC(=O)c2ccc(-c3ccc4c(C=O)c(O)ccc4c3)s2)C1 (centres unmarked) [Compound 79]
< 1 µM	Cc1nc(-c2ccc3c(C=O)c(O)ccc3c2)sc1C(=O)NC1CCN(C)CC1 [Compound 145]
< 0.1 µM	Cc1nc(-c2ccc3c(C=O)c(O)ccc3c2)sc1C(=O)NC1CCNCC1 [Compound 144]
< 0.1 µM	O=Cc1c(O)ccc2cc(-c3ccc(C(=O)NCCN4CCOCC4)nc3)ccc12 [Compound 126]
< 1 µM	O=Cc1c(O)ccc2cc(-c3ccc(C(=O)NC4CCNCC4)nc3)ccc12 [Compound 151]
< 0.1 µM	CN1CCN(C(=O)c2cnc(-c3ccc4c(C=O)c(O)ccc4c3)s2)CC1 [Compound 61]
< 0.1 µM	O=Cc1c(O)ccc2cc(-c3ccc(C(=O)NC4CCCNC4)o3)ccc12 (centres unmarked) [Compound 171]
< 1 µM	CN1CCC(NC(=O)c2ccc(-c3ccc4c(C=O)c(O)ccc4c3)s2)CC1 [Compound 38]
< 1 µM	CN1CCN(C(=O)c2cncc(-c3ccc4c(C=O)c(O)ccc4c3)c2)CC1 [Compound 67]
< 1 µM	O=Cc1c(O)ccc2cc(-c3ccc(C(=O)N4CCCC4)cc3)ccc12 [Compound 3]
< 1 µM	CN(C)C(=O)CCc1ccc2c(C=O)c(O)ccc2c1 [Compound 51]
< 1 µM	O=Cc1c(O)ccc2cc(-c3ccc(C(=O)N4CCCC4)nc3)ccc12 [Compound 124]
